According to patent publication US20130034522A1, “THERAPIES FOR TREATING HEPATITIS C VIRUS INFECTION” (priority 2010, published 2013):
Read-outs that look alike come from different tables or passages of the source.

Assays:
[1] = Study VX-222-102 Part A: VX-222 for 3 days in HCV infected subjects (PK, safety); type: in vivo, human; conditions: for AUC(0-t) / concentration at 12 h / Cmax / Tmax / half-life: human, in vivo; for AUC(0-t): read-out: AUC0-12 hr Geometric Mean; for concentration at 12 h: read-out: C12 Geometric Mean; for Cmax: read-out: Cmax Geometric Mean; for half-life: read-out: T1/2 Arithmetic Mean (converted)
Description: In Part A of Study 102 subjects were randomized to VX-222 or placebo in a 6:2 (VX-222: placebo) allocation ratio to either Cohort 1, Cohort 2, Cohort 3, or Cohort 4. Subjects enrolled in Cohort 1, Cohort 2, and Cohort 3 were administered 250 mg, 500 mf, or 750 mg VX-222 or placebo twice daily (b.i.d.) for 3 days, respectively. Subjects enrolled in Cohort 4 were administered 1,500 mg VX-222 or placebo once daily (qd) for 3 days. Standard of care treatment, Peg-IFN-alpha-2a and RBV was offered to the subjects at the end of dosing in Part A for up to 48 weeks, if judged appropriate by the physician.
Additional results of Study VX-222-102 are described in FIGS. 2-8: Thirty-two treatment-naïve patients with chronic genotype 1 HCV infection were enrolled in the trial, including six patients in each dose group who received 250 mg of VX-222 BID, 500 mg of VX-222 BID, 750 mg of VX-222 BID, and 1,500 mg of VX-222 QD. Two patients received placebo in each of the four dosing groups, for a total of eight patients who received placebo. Part A of the trial was conducted at 10 centers in the United States, Canada and Argentina. Of the patients enrolled in the trial, 24 patients had genotype 1a HCV infection and eight patients had genotype 1b HCV infection. Six of the patients enrolled in the trial were African American, 25 were Caucasian and one was American Indian/Alaskan.
Multicenter, randomized, double-blinded, placebo-controlled, dose-ranging study • HCV genotype 1-infected patients • With no evidence of cirrhosis • ALT values <5×ULM • Plasma HCV RNA of >5 log10 IU/mL at screening • 4-arm comparative study (6:2 randomization VX-222: placebo) • Enrollment in this dosing—ranging study was sequential • 250 mg BID for 3 days • 500 mg BID for 3 days • 750 mg BID for 3 days • 1500 mg QD for 3 days.

[2] = Study VX-222-002: combination treatment with VX-222 and VX-950 in healthy subjects (PK, safety); conditions: for AUC(0-t) / Cmax / half-life: human, plasma, oral; for AUC(0-t) / Cmax: geometric mean (CV %)
[3] = all four dose groups, blinded pooled data placebo or VX-222
[4] = 250 mg, 250 mg b.i.d., Day 1, HCV infected subjects
[5] = 250 mg, 250 mg b.i.d., Day 3, HCV infected subjects
[6] = 500 mg, 500 mg b.i.d., Day 1, HCV infected subjects
[7] = 500 mg, 500 mg b.i.d., Day 3, HCV infected subjects
[8] = 750 mg, 750 mg b.i.d., Day 1, HCV infected subjects
[9] = 750 mg, 750 mg b.i.d., Day 3, HCV infected subjects
[10] = VX-222 400 mg BID with VX-950 1125 mg BID, Day 37, healthy subjects, fed

Structure (SMILES): CC1CCC(C(=O)N(c2cc(C#CC(C)(C)C)sc2C(=O)O)C2CCC(O)CC2)CC1 (stereo not drawn) [VX-222, 5-(3,3-Dimethylbut-1-ynyl)-3-[(trans-4-hydroxycyclohexyl)-(4-trans methylcyclohexanecarbonyl)amino]thiophene-2-carboxylic acid]
- severe or serious events ([1]; 250, 500 or 750 mg b.i.d. for 3 days, genotype 1 chronic hepatitis C subjects): no reported severe or serious events
- VX-222 exposures versus dose ([1]; 250-750 mg BID and 1500 mg QD, FIG. 7): increased with doses in an approximately proportional manner
- severe or serious adverse events [1, 3]: no severe or serious adverse events were reported
- tolerability [1, 3]: well-tolerated
- AUC(0-t) [1, 4]: 11700 ng·h/mL
- concentration at 12 h [1, 4]: 858 ng/mL
- Cmax [1, 4]: 1810 ng/mL
- Tmax ([1]; 250 mg, 250 mg b.i.d., Day 1, HCV infected subjects, read-out: tmax Median): 6 h
- AUC(0-t) [1, 5]: 19500 ng·h/mL
- concentration at 12 h [1, 5]: 728 ng/mL
- Cmax [1, 5]: 2960 ng/mL
- Tmax ([1]; 250 mg, 250 mg b.i.d., Day 3, HCV infected subjects, read-out: tmax Median): 4 h
- AUC(0-t) [1, 6]: 22900 ng·h/mL
- concentration at 12 h [1, 6]: 767 ng/mL
- Cmax [1, 6]: 4360 ng/mL
- Tmax ([1]; 500 mg, 500 mg b.i.d., Day 1, HCV infected subjects, read-out: tmax Median): 3 h
- AUC(0-t) [1, 7]: 29800 ng·h/mL
- concentration at 12 h [1, 7]: 858 ng/mL
- Cmax [1, 7]: 5040 ng/mL
- Tmax ([1]; 500 mg, 500 mg b.i.d., Day 3, HCV infected subjects, read-out: tmax Median): 2.5 h
- AUC(0-t) [1, 8]: 43600 ng·h/mL
- concentration at 12 h [1, 8]: 1690 ng/mL
- Cmax [1, 8]: 6520 ng/mL
- Tmax ([1]; 750 mg, 750 mg b.i.d., Day 1, HCV infected subjects, read-out: tmax Median): 3 h
- AUC(0-t) [1, 9]: 63000 ng·h/mL
- concentration at 12 h [1, 9]: 1680 ng/mL
- Cmax [1, 9]: 10300 ng/mL
- Tmax ([1]; 750 mg, 750 mg b.i.d., Day 3, HCV infected subjects, read-out: tmax Median): 2 h
- Tmax ([1]; post dose, 250-750 mg BID and 1500 mg QD, FIG. 7, read-out: Tmax): 2 to 6 h
- half-life ([1]; 250 mg b.i.d., Day 3, HCV infected subjects): 4.1 h
- half-life ([1]; 500 mg b.i.d., Day 3, HCV infected subjects): 4 h
- half-life ([1]; 750 mg b.i.d., Day 3, HCV infected subjects): 3.5 h
- Tmax [2, 10]: 4 [4,6] hr
- VX-222 plasma exposures ([2]; co-administered with VX-950, healthy subjects): increased
- VX-222 administered with VX-950 versus VX-222 alone ([2]; healthy subjects): 2 fold
- AUC(0-t) ([2]; 400 mg, AUC0-12, VX-222 400 mg BID alone, Day 10, healthy subjects, fed): 8560 ng·h/mL
- Cmax ([2]; 400 mg, VX-222 400 mg BID alone, Day 10, healthy subjects, fed): 1770 ng/mL
- half-life ([2]; 400 mg, T1/2, VX-222 400 mg BID alone, Day 10, healthy subjects, fed): 2.7 h
- AUC(0-t) ([2]; 1000 mg, AUC0-12, VX-222 1000 mg BID alone, Day 10, healthy subjects, fed): 25800 ng·h/mL
- Cmax ([2]; 1000 mg, VX-222 1000 mg BID alone, Day 10, healthy subjects, fed): 4120 ng/mL
- half-life ([2]; 1000 mg, T1/2, VX-222 1000 mg BID alone, Day 10, healthy subjects, fed): 4 h
- AUC(0-t) ([2]; AUC0-12, VX-222 400 mg BID with VX-950 1125 mg BID, Day 37, healthy subjects, fed): 29500 ng·h/mL
- AUC(0-t) ([2]; AUC0-12, VX-222 1000 mg BID with VX-950 1125 mg BID, Day 37, healthy subjects, fed): 59900 ng·h/mL
- Cmax [2, 10]: 3950 ng/mL
- Cmax ([2]; VX-222 1000 mg BID with VX-950 1125 mg BID, Day 37, healthy subjects, fed): 8150 ng/mL
- half-life ([2]; T1/2, VX-222 400 mg BID with VX-950 1125 mg BID, Day 37, healthy subjects, fed): 5.4 h
- half-life ([2]; T1/2, VX-222 1000 mg BID with VX-950 1125 mg BID, Day 37, healthy subjects, fed): 3.5 h
